pIC50: −log10 of the molar value.
Tests used:
benzodiazepine receptors [1] = assay: Affinity for benzodiazepine receptors, displacement of ^3 H-labelled flunitrazepam in membranes from the rear portion of the brain in rats (Test 1); details: 0.6×10^-9 mol of ^3 H-labelled flunitrazepam; membranes from the rear portion of rat brain; read-out: Test 1: concentration which inhibited 50% of the specific binding of ^3 H-labelled flunitrazepam (IC50)
Procedure: The affinity of the active ingredients for the benzodiazepine receptors was measured using a radioactively labelled (^3 H) compound flunitrazepam,and a modified version of the method of Squires and Braestrup (Nature, 1977, Vol. 266, p. 732). The values given in Table 2 below are the concentration (mol×10^-9) of the compound under test which inhibited 50% of the specific binding of 0.6×10^-9 mol of ^3 H-labelled flunitrazepam in preparations of membranes from the rear portion of the brain in rats (IC50 values).

benzodiazepine receptors [2] = assay: in vivo binding to benzodiazepine receptors, Goeders et al (Test 2); details: IP
Procedure: Measuring of in vivo binding to benzodiazepine receptors was carried out according to the method described by Goeders et al, Life Sciences (1985), Vol. 37, p. 345.

Question: `CN1Cc2c(C(=O)C3CC3)ncn2-c2cccc(C3CC3)c2C1=O` [Example 1, 7-cyclopropyl-5,6-dihydro-5-methyl-6-oxo-4H-imidazo-[1,5-a][1,4]-benzodiazepin-3-yl cyclopropyl methanone] was tested. Which pIC50 (benzodiazepine receptors [1]) did it give?
Answer: 7.44

Question: And the “Test 2 ED50” value (benzodiazepine receptors [2])?
Answer: 0.15 mg/kg

Question: Which results are given for `CN1Cc2c(C(=O)C3CC3)ncn2-c2ccnc(C3CC3)c2C1=O` [Example 2, 7-cyclopropyl-5,6-dihydro-5-methyl-6-oxo-4H-imidazo-[1,5-a]-pyrido [3,4-f]diazepin-3-yl cyclopropyl methanone]?
Answer: pIC50 (benzodiazepine receptors [1]): 7.59; Test 2 ED50 (benzodiazepine receptors [2]): 0.08 mg/kg

Question: How did the pIC50 (benzodiazepine receptors [1]) turn out when `CN1Cc2c(C(=O)C3CC3)ncn2-c2ccncc2C1=O` [Example 3, 5,6-dihydro-5-methyl-6-oxo-4H-imidazo [1,5-a]-pyrido-[3,4-f][1,4]-diazepin-3-yl cyclopropylmethanone] was run?
Answer: 6.98

Question: And the “Test 2 ED50” value (benzodiazepine receptors [2])?
Answer: 0.13 mg/kg
